For 31 compounds, EC50 results are on record in patent publication US20240368109A1, “ALLOSTERIC MODULATORS OF NICOTINIC ACETYLCHOLINE RECEPTORS” (MERCK SHARP & DOHME LLC, priority 2021, published 2024).

In general, EC50 refers to the concentration that produces a half-maximal response.

In the test the target is human α7 nAChR (Homo sapiens (Human), UniProt P36544). Description: Automated patch-clamp electrophysiology functional assay (Assay A). To be noted: IonFlux HT whole-cell population patch, HEK cells expressing human α7/RIC-3, 40 μM acetylcholine. In kind it is cell-based. The procedure, abridged: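 Whole-cell population patch clamp on HEK cells stably co-expressing human α7 and RIC-3, held at −60 mV, room temperature. Compounds tested at three ascending concentrations per recording with or without 40 μM acetylcholine; currents normalized to the 40 μM acetylcholine-evoked reference response to give agonist and potentiation EC50.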
Chain of human α7 nAChR (P36544 23-502): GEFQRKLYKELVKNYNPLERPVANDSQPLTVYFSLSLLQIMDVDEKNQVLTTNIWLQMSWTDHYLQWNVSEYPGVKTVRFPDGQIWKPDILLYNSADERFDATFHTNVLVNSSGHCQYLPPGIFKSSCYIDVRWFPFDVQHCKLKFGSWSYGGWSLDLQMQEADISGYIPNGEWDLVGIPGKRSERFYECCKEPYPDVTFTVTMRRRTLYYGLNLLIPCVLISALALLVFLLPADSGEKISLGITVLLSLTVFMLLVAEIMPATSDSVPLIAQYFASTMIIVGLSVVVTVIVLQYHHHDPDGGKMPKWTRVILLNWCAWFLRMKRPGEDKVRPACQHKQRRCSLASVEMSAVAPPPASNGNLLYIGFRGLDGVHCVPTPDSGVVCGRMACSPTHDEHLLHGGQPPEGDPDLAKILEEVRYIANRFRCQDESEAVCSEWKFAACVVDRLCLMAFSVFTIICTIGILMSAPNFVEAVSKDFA
On the technique in general: The patch-clamp technique gives a direct electrical read-out from membranes.

`CCOc1ccc([C@H](COC)NC(=O)C2C3Oc4ccccc4C32)cc1` (stereo partly drawn) [Example B1, exo-N-[(1R)-1-(4-ethoxyphenyl)-2-methoxyethyl]-1a,6b-dihydro-1H-cyclopropa[b][1]benzofuran-1-carboxamide]: the EC50 is 1200 nM (electrophysiology EC50 values) and 500 to 5000 nM (potency class).

As to `O=C(N[C@@H](CO)C1CCCCC1)C1C2COc3ccccc3C21` (stereo partly drawn) [Example A6, exo-N-[(1R)-1-cyclohexyl-2-hydroxyethyl]-1,1a,2,7b-tetrahydrocyclopropa[c][1]benzopyran-1-carboxamide], the EC50 (electrophysiology EC50 values) stood at 1100 nM and the concentration for a half-maximal effect (EC50) (potency class) lay within 500 to 5000 nM.

With `CCOc1ccc([C@H](COC)NC(=O)C2C3Oc4c(Br)cccc4C32)cc1` (stereo partly drawn) [Example B9, exo-3-bromo-N-[(1R)-1-(4-ethoxyphenyl)-2-methoxyethyl]-1a,6b-dihydro-1H-cyclopropa[b][1]benzofuran-1-carboxamide], the 50% effective concentration (EC50) runs as follows: (electrophysiology EC50 values) 390 nM; (potency class) 100 to 500 nM.

Turning to `CCOc1ccc(C2(NC(=O)C3C4Oc5ccc(F)cc5C43)CCC2)cn1` (stereo not drawn) [Example C3, exo-N-[1-(6-ethoxypyridin-3-yl)cyclobutyl]-5-fluoro-1a,6b-dihydro-1H-cyclopropa[b][1]benzofuran-1-carboxamide], the EC50 reads like this: (electrophysiology EC50 values) 5600 nM; (potency class) 5000 to 50000 nM.

Turning to `O=C(NCc1cc(-c2ccc(Cl)cc2)no1)C1C2Oc3ccc(F)cc3C21` (stereo not drawn) [Example C52, exo-N-{[3-(4-chlorophenyl)-1,2-oxazol-5-yl]methyl}-5-fluoro-1a,6b-dihydro-1H-cyclopropa[b][1]benzofuran-1-carboxamide], the EC50 (potency class) is 500 to 5000 nM.

Consider `O=C(NCc1cc(C(F)F)nc(C(F)F)c1)C1C2Oc3ccc(F)cc3C21` (stereo not drawn) [Example C19, exo-N-{[2,6-bis(difluoromethyl)pyridin-4-yl]methyl}-5-fluoro-1a,6b-dihydro-1H-cyclopropa[b][1]benzofuran-1-carboxamide], for which the EC50 was 600 nM (electrophysiology EC50 values) and 500 to 5000 nM (potency class).

For the compound `O=C(NCc1cccc(-c2ncco2)c1)C1C2Oc3ccc(F)cc3C21` (stereo not drawn) [Example C35, exo-5-fluoro-N-{[3-(1,3-oxazol-2-yl)phenyl]methyl}-1a,6b-dihydro-1H-cyclopropa[b][1]benzofuran-1-carboxamide], the EC50 (electrophysiology EC50 values) is 2400 nM and the half-maximal effective concentration (EC50) (potency class) is 500 to 5000 nM.

As for `CCOc1ccc([C@H](COC)NC(=O)C2C3Cc4ccccc4C32)cc1` (single isomer, unassigned) [Example 1], the half-maximal effective concentration (EC50) (electrophysiology EC50 values) came out at 760 nM and the half-maximal effective concentration (EC50) (potency class) lay in the range of 500 to 5000 nM.

Consider `O=C(NC1(c2ccc(F)cc2)COC1)C1C2COc3ccc(F)cc3C21` (stereo not drawn) [Example A2, exo-6-fluoro-N-[3-(4-fluorophenyl)oxetan-3-yl]-1,1a,2,7b-tetrahydrocyclopropa[c][1]benzopyran-1-carboxamide], for which the 50% effective concentration (EC50) by setting is: (electrophysiology EC50 values) 1200 nM; (potency class) 500 to 5000 nM.

In the case of `O=C(NCc1cc(Cl)ccc1F)C1C2Oc3ccc(F)cc3C21` (stereo not drawn) [Example C14, exo-N-[(5-chloro-2-fluorophenyl)methyl]-5-fluoro-1a,6b-dihydro-1H-cyclopropa[b][1]benzofuran-1-carboxamide], the half-maximal effective concentration (EC50) runs as follows: (electrophysiology EC50 values) 810 nM; (potency class) 500 to 5000 nM.

Take `COC(=O)C(NC(=O)C1C2Oc3ccc(F)cc3C21)c1cccc(Cl)c1` (stereo not drawn) [Example C29, methyl 2-(3-chlorophenyl)-2-[(exo-5-fluoro-1a,6b-dihydro-1H-cyclopropa[b][1]benzofuran-1-carbonyl)amino]acetate]: the EC50 reads like this: (electrophysiology EC50 values) 1800 nM; (potency class) 500 to 5000 nM.

With `O=C(N[C@@H](CCO)c1ccc(F)cc1)C1C2Oc3ccc(F)cc3C21` (stereo partly drawn) [Example C30, exo-5-fluoro-N-[(1S)-1-(4-fluorophenyl)-3-hydroxypropyl]-1a,6b-dihydro-1H-cyclopropa[b][1]benzofuran-1-carboxamide], the 50% effective concentration (EC50) was 2800 nM (electrophysiology EC50 values) and 500 to 5000 nM (potency class).

In the case of `CCOc1ccc([C@H](COC)NC(=O)C2C3Oc4ccccc4C32)cc1` (stereo partly drawn) [Example B3, exo-N-[(1R)-1-(4-ethoxyphenyl)-2-methoxyethyl]-1a,6b-dihydro-1H-cyclopropa[b][1]benzofuran-1-carboxamide], the EC50 reads like this: (electrophysiology EC50 values) 470 nM; (potency class) 100 to 500 nM.

Take `O=C(NCc1nnc(-c2ccccc2)o1)C1C2Oc3ccc(F)cc3C21` (stereo not drawn) [Example C50, exo-5-fluoro-N-[(5-phenyl-1,3,4-oxadiazol-2-yl)methyl]-1a,6b-dihydro-1H-cyclopropa[b][1]benzofuran-1-carboxamide]: the EC50 is 480 nM (electrophysiology EC50 values) and 100 to 500 nM (potency class).

As to `O=C(NCc1ccc2ncccc2c1)C1C2Oc3ccc(F)cc3C21` (stereo not drawn) [Example C27, 6-{[(exo-5-fluoro-1a,6b-dihydro-1H-cyclopropa[b][1]benzofuran-1-carbonyl)amino]methyl}quinoline], the EC50 by setting is: (electrophysiology EC50 values) 2000 nM; (potency class) 500 to 5000 nM.

With `O=C(N[C@H]1CCOc2cc(F)ccc21)C1C2Oc3ccc(F)cc3C21` (stereo partly drawn) [Example C6, exo-5-fluoro-N-[(4S)-7-fluoro-3,4-dihydro-2H-1-benzopyran-4-yl]-1a,6b-dihydro-1H-cyclopropa[b][1]benzofuran-1-carboxamide], the concentration for a half-maximal effect (EC50) was 860 nM (electrophysiology EC50 values) and 500 to 5000 nM (potency class).

`CCOc1ccc([C@H](CF)NC(=O)C2C3COc4ccc(F)cc4C32)cn1` (stereo partly drawn) [Example A15, exo-N-[(1R)-1-(6-ethoxypyridin-3-yl)-2-fluoroethyl]-6-fluoro-1,1a,2,7b-tetrahydrocyclopropa[c][1]benzopyran-1-carboxamide]: the EC50 was 1500 nM (electrophysiology EC50 values) and 500 to 5000 nM (potency class).

For the compound `O=C(NCc1nc2ccccc2s1)C1C2Oc3ccc(F)cc3C21` (stereo not drawn) [Example C28, 2-{[(exo-5-fluoro-1a,6b-dihydro-1H-cyclopropa[b][1]benzofuran-1-carbonyl)amino]methyl}-1,3-benzothiazole], the concentration for a half-maximal effect (EC50) (potency class) lay in the range of 500 to 5000 nM.

For the compound `Cc1cc(F)cc(CNC(=O)C2C3Oc4ccc(F)cc4C32)c1` (stereo not drawn) [Example C24, exo-5-fluoro-N-[(3-fluoro-5-methylphenyl)methyl]-1a,6b-dihydro-1H-cyclopropa[b][1]benzofuran-1-carboxamide], the EC50 by setting is: (electrophysiology EC50 values) 950 nM; (potency class) 500 to 5000 nM.

For the compound `COc1cc([C@H](CF)NC(=O)C2C3COc4ccc(F)cc4C32)ccn1` (stereo partly drawn) [Example A16, exo-6-fluoro-N-[(1R)-2-fluoro-1-(2-methoxypyridin-4-yl)ethyl]-1,1a,2,7b-tetrahydrocyclopropa[c][1]benzopyran-1-carboxamide], the EC50 (potency class) lay in the range of 500 to 5000 nM.

For `CCC(NC(=O)C1C2Oc3ccc(F)cc3C21)c1ccccn1` (stereo not drawn) [Example C16, 2-{1-[(exo-5-fluoro-1a,6b-dihydro-1H-cyclopropa[b][1]benzofuran-1-carbonyl)amino]propyl}pyridine], the EC50 (potency class) lay in the range of 500 to 5000 nM.

As to `CCOc1ccc([C@H](COC)NC(=O)C2C3Oc4ccc(-c5cncnc5)cc4C32)cc1` (stereo partly drawn) [Example B11, exo-N-[(1R)-1-(4-ethoxyphenyl)-2-methoxyethyl]-5-(pyrimidin-5-yl)-1a,6b-dihydro-1H-cyclopropa[b][1]benzofuran-1-carboxamide], the EC50 (potency class) was in the range of 5000 to 50000 nM.

Turning to `O=C(NCc1ccc(F)cc1F)C1C2Oc3ccc(F)cc3C21` (stereo not drawn) [Example C23, exo-N-[(2,4-difluorophenyl)methyl]-5-fluoro-1a,6b-dihydro-H-cyclopropa[b][1]benzofuran-1-carboxamide], the EC50 was 2300 nM (electrophysiology EC50 values) and 500 to 5000 nM (potency class).

For the compound `CCOc1ccc([C@H](COC)NC(=O)C2C3c4ccccc4N(C(C)=O)C23)cc1` (stereo partly drawn) [Example B12, exo-2-acetyl-N-[(1R)-1-(4-ethoxyphenyl)-2-methoxyethyl]-1,1a,2,6b-tetrahydrocyclopropa[b]indole-1-carboxamide], the EC50 is 1300 nM (electrophysiology EC50 values) and 500 to 5000 nM (potency class).

In the case of `O=C(NCc1cc(-c2ccccc2)no1)C1C2Oc3ccc(F)cc3C21` (stereo not drawn) [Example C32, exo-5-fluoro-N-[(3-phenyl-1,2-oxazol-5-yl)methyl]-1a,6b-dihydro-1H-cyclopropa[b][1]benzofuran-1-carboxamide], the EC50 runs as follows: (electrophysiology EC50 values) 190 nM; (potency class) 100 to 500 nM.

In the case of `CCOc1ccc([C@H](COC)NC(=O)C2C3Oc4ccc(-c5nn[nH]n5)cc4C32)cc1` (stereo partly drawn) [Example 5, exo-N-[(1R)-1-(4-Ethoxyphenyl)-2-methoxyethyl]-5-(2H-tetrazol-5-yl)-1a,6b-dihydro-1H-cyclopropa[b][1]benzofuran-1-carboxamide], the concentration giving a half-maximal response (EC50) is 1500 nM (electrophysiology EC50 values) and 500 to 5000 nM (potency class).

With `O=C(NCc1cccs1)C1C2Oc3ccc(F)cc3C21` (stereo not drawn) [Example C17, exo-5-fluoro-N-[(thiophen-2-yl)methyl]-1a,6b-dihydro-1H-cyclopropa[b][1]benzofuran-1-carboxamide], the half-maximal effective concentration (EC50) runs as follows: (electrophysiology EC50 values) 970 nM; (potency class) 500 to 5000 nM.

For `CCOc1ccc([C@H](COC)NC(=O)C2C3Oc4ccc(-c5cn(Cc6ccccc6)nn5)cc4C32)cc1` (single isomer, unassigned) [Example 6], the EC50 (electrophysiology EC50 values) is 1100 nM and the EC50 (potency class) fell in the range of 500 to 5000 nM.

With `O=C(N[C@@H](C(F)F)C1CCCCC1)C1C2COc3ccccc3C21` (stereo partly drawn) [Example A20, exo-N-[(1R)-1-cyclohexyl-2,2-difluoroethyl]-1,1a,2,7b-tetrahydrocyclopropa[c][1]benzopyran-1-carboxamide], the concentration giving a half-maximal response (EC50) by setting is: (electrophysiology EC50 values) 570 nM; (potency class) 500 to 5000 nM.

With `CCOc1ccc([C@H](COC)NC(=O)C2C3Oc4ccccc4C32)cc1` (stereo partly drawn) [Example B2, exo-N-[(1R)-1-(4-ethoxyphenyl)-2-methoxyethyl]-1a,6b-dihydro-1H-cyclopropa[b][1]benzofuran-1-carboxamide], the EC50 by setting is: (electrophysiology EC50 values) 1500 nM; (potency class) 500 to 5000 nM.

In the case of `O=C(NCc1ccc(Oc2ccccn2)cc1)C1C2Oc3ccc(F)cc3C21` (stereo not drawn) [Example C34, exo-5-fluoro-N-({4-[(pyridin-2-yl)oxy]phenyl}methyl)-1a,6b-dihydro-1H-cyclopropa[b][1]benzofuran-1-carboxamide], the EC50 is, setting by setting: (electrophysiology EC50 values) 810 nM; (potency class) 500 to 5000 nM.
